Reference: patent US4652575A, “2-(ethylene-thio methyl furanyl)amino thiazole derivatives having acid secretion inhibiting activity” (Medosan Industrie Biochimiche Riunite S.p.A., priority 1984, dated 1987)
Read-outs that look alike come from different tables or passages of the source.

Columns and labels:
[1] = in vivo; settings: po; for LD50 at 360 h: mouse; for LD50: rat
From the text: The animals were kept under observation by checking mortality and possible pain signs for 15 days from start of test.

[2] = molecular target: T1, histamine H2 receptors (Cavia porcellus, UniProt P47747); test: Antagonistic activity to the histamine H2 receptors "in vitro" on insulated atrium auricolas of Guinea pig heart; settings: for inhibition at 10 µM / inhibition at 1 µM / inhibition at 0.1 µM: guinea pig, 0.5 h, read-out: Antagonizing activity to histamine H2 receptors; for inhibition at 10 µM: compound 1·10^-5 M/L; for inhibition at 1 µM: compound 1·10^-6 M/L; for inhibition at 0.1 µM: compound 1·10^-7 M/L; for antagonistic action to the histamine H2 receptors (in words): in vitro
T1 construct: tests on insulated atrium auricolas of Guinea pig heart; from tissue; host or cells: isolated guinea pig heart atrium
T1 sequence (P47747 whole entry): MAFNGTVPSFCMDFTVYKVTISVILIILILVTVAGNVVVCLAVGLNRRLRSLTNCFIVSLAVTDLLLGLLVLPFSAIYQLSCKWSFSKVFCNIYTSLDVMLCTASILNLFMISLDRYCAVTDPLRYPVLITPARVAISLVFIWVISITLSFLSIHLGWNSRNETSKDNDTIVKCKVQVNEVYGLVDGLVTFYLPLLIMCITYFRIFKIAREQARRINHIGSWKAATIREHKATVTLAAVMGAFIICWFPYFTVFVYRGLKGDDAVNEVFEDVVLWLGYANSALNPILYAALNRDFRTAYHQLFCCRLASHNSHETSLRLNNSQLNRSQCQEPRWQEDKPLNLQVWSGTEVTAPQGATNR
Method: (§1) The preparations were a solution of the substances in 2.5% citric acid for the "in vitro" test and 5% citric acid for the "in vivo" test respectively. Citric acid was diluted in normal physiologic saline at neutral pH.
This activity was evaluated "in vitro" by carrying out tests on insulated atrium auricolas of Guinea pig heart. […] Metering was carried out by placing the preparation into a vessel containing a Ringer-Locke solution wherein pure oxygen was bubbling, at a temperature of 37° C. A response of the organ "in vitro" was first established at cumulative histamine doses of 2.5.10^-7, 5.10^-7, 10^-6, 5.10^-6, 10^-5 M/L. After obtaining two constant lines with histamine at a time interval of one hour from one another, the substances under test were added to the bath and after a 30 minutes contact with the preparation, a new histamine response line in the presence of the substance under test was drawn. The activity was tested at various concentrations of the new compounds (10^-5, 10^-6, 10^-7 and in one case 10^-8 M/L).

[3] = tested on: gastric secretion; test: Activity on gastric secretion "in vivo" (volume and total acidity of gastric juice after pylorus tieing, Shay); set-up: species or system male Wistar rats; settings: for Total acidity gastric juice secretion / Volume gastric juice secretion / change in vivo at 20 mg/kg: 20 mg/kg oral; for change in vivo at 20 mg/kg / ED50: Rattus norvegicus, po; for ED50: per os, 1 hour before pilorus tieing, read-out: DE50 in rat calculated on total acidity (mEq/4 hours); for ability to reduce the gastric acid secretion (in words): volume and total acidity of gastric juice
Method: as §1
The ability of the compounds according to the present invention to inhibit the gastric secretion was studied "in vivo" both by evaluating the volume reduction of gastric juice, and by measuring the total acidity of same after administration of the substances under test according to the Takeda method (see the aforementioned literature).
To this end, tests have been made on male Wistar rats of an average weight of 200 g. The animals, 10 for each substance, were placed into individual cages provided with ground grating in order to avoid coprophagy, without food but with free access to water for 24 hours before test. […] Four hours later the animals were sacrificed and the gastric juice was collected, of which the volume expressed in ml and the total acidity expressed in mEq was measured. The gastric juice ([…] ) was titrated with 0.1N NaOH to pH 7 to determine the acid concentration. The total acidity was then calculated as the product of the total volume of gastric juice by the acid concentration.

[4] = 6 hours before pilorus tieing, read-out: Total acidity gastric juice secretion, Variation %
[5] = 6 hours before pilorus tieing, read-out: Volume gastric juice secretion, Variation %
[6] = 12 hours before pilorus tieing, read-out: Total acidity gastric juice secretion, Variation %
[7] = 12 hours before pilorus tieing, read-out: Volume gastric juice secretion, Variation %
[8] = 24 hours before pilorus tieing, read-out: Total acidity gastric juice secretion, Variation %
[9] = 24 hours before pilorus tieing, read-out: Volume gastric juice secretion, Variation %
[10] = 36 hours before pilorus tieing, read-out: Total acidity gastric juice secretion, Variation %
[11] = 36 hours before pilorus tieing, read-out: Volume gastric juice secretion, Variation %

| SMILES | LD50 at 360 h [1] [mg/kg] | LD50 [1] [mg/kg] | inhibition at 10 µM ([2]; histamine 1·10^-5 M/L) [%] | inhibition at 10 µM ([2]; histamine 1·10^-6 M/L) [%] | inhibition at 10 µM ([2]; histamine 2,5·10^-7 M/L) [%] | inhibition at 10 µM ([2]; histamine 5·10^-6 M/L) [%] | inhibition at 10 µM ([2]; histamine 5·10^-7 M/L) [%] | inhibition at 1 µM ([2]; histamine 1·10^-5 M/L) [%] | inhibition at 1 µM ([2]; histamine 1·10^-6 M/L) [%] | inhibition at 1 µM ([2]; histamine 2,5·10^-7 M/L) [%] | inhibition at 1 µM ([2]; histamine 5·10^-6 M/L) [%] | inhibition at 1 µM ([2]; histamine 5·10^-7 M/L) [%] | inhibition at 0.1 µM ([2]; histamine 1·10^-5 M/L) [%] | inhibition at 0.1 µM ([2]; histamine 1·10^-6 M/L) [%] | inhibition at 0.1 µM ([2]; histamine 2,5·10^-7 M/L) [%] | inhibition at 0.1 µM ([2]; histamine 5·10^-6 M/L) [%] | inhibition at 0.1 µM ([2]; histamine 5·10^-7 M/L) [%] | antagonistic action to the histamine H2 receptors (in words) [2] | Total acidity gastric juice secretion ([3]; 6 hours before pilorus tieing) | Volume gastric juice secretion ([3]; 6 hours before pilorus tieing) | other results |
| --- | --- | --- | --- | --- | --- | --- | --- | --- | --- | --- | --- | --- | --- | --- | --- | --- | --- | --- | --- | --- | --- |
| CN(C)Cc1ccc(CSCCNC(=S)NC(=O)c2ccccc2)o1 [Example No. 1, N-benzoyl-N'-(2-(((5-(dimethylamino)methyl-2-furanyl)methyl)-thio)ethyl)-thiourea] | 750 | 1000 | 100 | 100 | 100 | 100 | 100 | 50 | 80 | 100 | 60 | 90 | 20 | 65 | 90 | 35 | 85 | interesting ability | 0,08 mEq/4 hours | 4,1 ml/4 hours | Total acidity gastric juice secretion ([3]; 12 hours before pilorus tieing): 0,09 mEq/4 hours; Volume gastric juice secretion ([3]; 12 hours before pilorus tieing): 4,0 ml/4 hours; Total acidity gastric juice secretion ([3]; 24 hours before pilorus tieing): 0,13 mEq/4 hours; Volume gastric juice secretion ([3]; 24 hours before pilorus tieing): 5,0 ml/4 hours; Total acidity gastric juice secretion ([3]; 36 hours before pilorus tieing): 0,14 mEq/4 hours; Volume gastric juice secretion ([3]; 36 hours before pilorus tieing): 5,2 ml/4 hours; change in vivo at 20 mg/kg [3, 4]: -53%; change in vivo at 20 mg/kg [3, 5]: -23%; change in vivo at 20 mg/kg [3, 6]: -40%; change in vivo at 20 mg/kg [3, 7]: -21%; change in vivo at 20 mg/kg [3, 8]: -23%; change in vivo at 20 mg/kg [3, 9]: -11%; change in vivo at 20 mg/kg [3, 10]: -12%; change in vivo at 20 mg/kg [3, 11]: -7%; ED50 [3]: 3.4 mg/kg; ability to reduce the gastric acid secretion (in words) [3]: interesting ability |
| CN(C)Cc1ccc(CSCCNc2nc(-c3ccccc3)cs2)o1 [Example No. 3, 2-(2-(((5-(dimethylamino)methyl-2-furanyl)methyl)thio)ethyl)-amino-4-phenylthiazole] | 550 | 900 | 95 | 100 | 100 | 100 | 100 | 52 | 85 | 100 | 70 | 100 | 20 | 50 | 85 | 30 | 70 | interesting ability | 0,07 mEq/4 hours | 4,0 ml/4 hours | Total acidity gastric juice secretion ([3]; 12 hours before pilorus tieing): 0,10 mEq/4 hours; Volume gastric juice secretion ([3]; 12 hours before pilorus tieing): 4,1 ml/4 hours; Total acidity gastric juice secretion ([3]; 24 hours before pilorus tieing): 0,12 mEq/4 hours; Volume gastric juice secretion ([3]; 24 hours before pilorus tieing): 4,8 ml/4 hours; Total acidity gastric juice secretion ([3]; 36 hours before pilorus tieing): 0,15 mEq/4 hours; Volume gastric juice secretion ([3]; 36 hours before pilorus tieing): 5,0 ml/4 hours; change in vivo at 20 mg/kg [3, 4]: -59%; change in vivo at 20 mg/kg [3, 5]: -24%; change in vivo at 20 mg/kg [3, 6]: -33%; change in vivo at 20 mg/kg [3, 7]: -20%; change in vivo at 20 mg/kg [3, 8]: -29%; change in vivo at 20 mg/kg [3, 9]: -14%; change in vivo at 20 mg/kg [3, 10]: -6%; change in vivo at 20 mg/kg [3, 11]: -11%; ED50 [3]: 2.2 mg/kg; ability to reduce the gastric acid secretion (in words) [3]: interesting ability |
| CN(C)Cc1ccc(CSCCNc2nc(C=Cc3ccccc3)cs2)o1 [Example No. 4, 2-(2-(((5-(dimethylamino)methyl-2-furanyl)methyl)thio)ethyl)amino-4-styryl-thiazole] | 2900 | 3000 | 93 | 100 | 100 | 100 | 100 | 38 | 70 | 100 | 60 | 100 | 20 | 45 | 90 | 35 | 70 | interesting ability | 0,09 mEq/4 hours | 3,9 ml/4 hours | Total acidity gastric juice secretion ([3]; 12 hours before pilorus tieing): 0,08 mEq/4 hours; Volume gastric juice secretion ([3]; 12 hours before pilorus tieing): 4,0 ml/4 hours; Total acidity gastric juice secretion ([3]; 24 hours before pilorus tieing): 0,14 mEq/4 hours; Volume gastric juice secretion ([3]; 24 hours before pilorus tieing): 4,9 ml/4 hours; Total acidity gastric juice secretion ([3]; 36 hours before pilorus tieing): 0,14 mEq/4 hours; Volume gastric juice secretion ([3]; 36 hours before pilorus tieing): 5,3 ml/4 hours; change in vivo at 20 mg/kg [3, 4]: -47%; change in vivo at 20 mg/kg [3, 5]: -26%; change in vivo at 20 mg/kg [3, 6]: -47%; change in vivo at 20 mg/kg [3, 7]: -21%; change in vivo at 20 mg/kg [3, 8]: -18%; change in vivo at 20 mg/kg [3, 9]: -13%; change in vivo at 20 mg/kg [3, 10]: -12%; change in vivo at 20 mg/kg [3, 11]: -5%; ED50 [3]: 3.2 mg/kg; ability to reduce the gastric acid secretion (in words) [3]: interesting ability |
